Laboratory results: US12655126B2, “Imidazole-pyrazole derivatives as antibacterials” (Hoffmann-La Roche Inc., priority 2020, dated 2026)
Structures can show the parent of a compound that is named as a salt.

These compounds were tested on Acinetobacter baumannii ATCC17961 (assay: Antimicrobial susceptibility testing: 90% growth inhibitory concentration (IC90) determination). Conditions: Acinetobacter baumannii ATCC17961; Iso-Sensitest broth; growth by OD 600 nm over 16 h; 90% growth inhibitory concentration; read-out: ATCC 17961 IC90.
Type: cell-based
Experimental: Antimicrobial Susceptibility Testing:
90% Growth Inhibitory Concentration (IC90) Determination
The in vitro antimicrobial activity of the compounds was determined according to the following procedure:
The assay used a 10-points Iso-Sensitest broth medium to measure quantitatively the in vitro activity of the compounds against Acinetobacter baumannii ATCC17961.
Stock compounds in DMSO were serially twofold diluted (e.g. range from 50 to 0.097 μM final concentration) in 384 wells microtiter plates and inoculated with 49 μl the bacterial suspension in Iso-Sensitest medium to have a final cell concentration of ˜5×10^(5) CFU/ml in a final volume/well of 50 ul/well. Microtiter plates were incubated at 35±2° C.
Bacterial cell growth was determined with the measurement of optical density at λ=600 nm each minutes over a time course of 16 h. Growth inhibition was calculated during the logarithmic growth of the bacterial cells with determination of the concentration inhibiting 50% (IC50) and 90% (IC90) of the growth.
Table 1 provides the 90% growth inhibitory concentrations (IC90) in micromoles per liter of the compounds of present invention obtained against the strain Acinetobacter baumannii ATCC17961.

Structure (SMILES)	IC90 [nM]
Cn1c(-c2cn(-c3cc(Cl)c(N)cn3)nc2C(F)(F)F)cnc1C(=O)Nc1ccc(C(=O)N2CCN(C(=O)C3CC[N+](C)(C)CC3)CC2)c(Cl)c1 [Example A12, 5-[1-(5-amino-4-chloro-2-pyridyl)-3-(trifluoromethyl)pyrazol-4-yl]-N-[3-chloro-4-[4-(1,1-dimethylpiperidin-1-ium-4-carbonyl)piperazine-1-carbonyl]phenyl]-1-methyl-imidazole-2-carboxamide]	270
Cn1c(-c2cn(-c3ncccn3)nc2C(F)(F)F)cnc1C(=O)Nc1ccc(C(=O)N2CCN(C(=O)[C@@H]3C[C@@H](O)C[N+]3(C)C)CC2)c(Cl)c1 [Example B2, N-[3-chloro-4-[4-[(2S,4R)-4-hydroxy-1,1-dimethyl-pyrrolidin-1-ium-2-carbonyl]piperazine-1-carbonyl]phenyl]-1-methyl-5-[1-pyrimidin-2-yl-3-(trifluoromethyl)pyrazol-4-yl]imidazole-2-carboxamide; formate]	1600
Cn1c(-c2cn(-c3ncccn3)nc2C(F)(F)F)cnc1C(=O)Nc1ccc(C(=O)N2CCN(C(=O)[C@@H]3[C@@H](O)CC[N+]3(C)C)CC2)c(Cl)c1 [Example B3, N-[3-chloro-4-[4-[(2S,3S)-3-hydroxy-1,1-dimethyl-pyrrolidin-1-ium-2-carbonyl]piperazine-1-carbonyl]phenyl]-1-methyl-5-[1-pyrimidin-2-yl-3-(trifluoromethyl)pyrazol-4-yl]imidazole-2-carboxamide; formate]	3800
Cn1c(-c2cn(-c3ncccn3)nc2C(F)(F)F)cnc1C(=O)Nc1ccc(C(=O)N2CCN(C(=O)C3CC[N+](C)(C)CC3O)CC2)c(Cl)c1 (stereo not drawn) [Example B4, N-[3-chloro-4-[4-(3-hydroxy-1,1-dimethyl-piperidin-1-ium-4-carbonyl)piperazine-1-carbonyl]phenyl]-1-methyl-5-[1-pyrimidin-2-yl-3-(trifluoromethyl)pyrazol-4-yl]imidazole-2-carboxamide; formate]	1900
COc1ccc(-n2cc(-c3cnc(C(=O)Nc4ccc(C(=O)N5CCN(C(=O)[C@@H]6CC[N+](C)(C)C[C@H]6O)CC5)c(Cl)c4)n3C)c(C(F)(F)F)n2)nc1 [Example B5, N-[3-chloro-4-[4-[(3S,4R)-3-hydroxy-1,1-dimethyl-piperidin-1-ium-4-carbonyl]piperazine-1-carbonyl]phenyl]-5-[1-(5-methoxy-2-pyridyl)-3-(trifluoromethyl)pyrazol-4-yl]-1-methyl-imidazole-2-carboxamide]	310
COc1ccc(-n2cc(-c3cnc(C(=O)Nc4ccc(C(=O)N5CCN(C(=O)[C@@H]6C[C@@H](O)C[N+]6(C)C)CC5)c(Cl)c4)n3C)c(C(F)(F)F)n2)nc1 [Example B6, N-[3-chloro-4-[4-[(2S,4R)-4-hydroxy-1,1-dimethyl-pyrrolidin-1-ium-2-carbonyl]piperazine-1-carbonyl]phenyl]-5-[1-(5-methoxy-2-pyridyl)-3-(trifluoromethyl)pyrazol-4-yl]-1-methyl-imidazole-2-carboxamide; formate]	360
Cn1c(-c2cn(-c3ccc([N+](=O)[O-])cn3)nc2C(F)(F)F)cnc1C(=O)Nc1ccc(C(=O)N2CCN(C(=O)[C@@H]3[C@@H](O)CC[N+]3(C)C)CC2)c(Cl)c1 [Example B7, N-[3-chloro-4-[4-[(2S,3S)-3-hydroxy-1,1-dimethyl-pyrrolidin-1-ium-2-carbonyl]piperazine-1-carbonyl]phenyl]-1-methyl-5-[1-(5-nitro-2-pyridyl)-3-(trifluoromethyl)pyrazol-4-yl]imidazole-2-carboxamide; formate]	1600
Cn1c(-c2cn(-c3ncccn3)nc2C(F)(F)F)cnc1C(=O)Nc1ccc(C(=O)N2CC[N+](C)(C)CC2)c(Cl)c1 [Example B9, 4-(2-chloro-4-(1-methyl-5-(1-(pyrimidin-2-yl)-3-(trifluoromethyl)-1H-pyrazol-4-yl)-1H-imidazole-2-carboxamido)benzoyl)-1,1-dimethylpiperazin-1-ium]	5200

The remaining lines, values ahead:

IC90 [nM]	Structure (SMILES)
1100	Cn1c(-c2cn(-c3ncccn3)nc2C(F)(F)F)cnc1C(=O)Nc1ccc(C(=O)N2CCN(C(=O)C3CC[N+](C)(CC(N)=O)CC3)CC2)c(Cl)c1 (stereo not drawn) [Example C2, N-[4-[4-[1-(2-amino-2-oxo-ethyl)-1-methyl-piperidin-1-ium-4-carbonyl]piperazine-1-carbonyl]-3-chloro-phenyl]-1-methyl-5-[1-pyrimidin-2-yl-3-(trifluoromethyl)pyrazol-4-yl]imidazole-2-carboxamide; formate]
150	Cn1c(-c2cn(-c3ccc(N)cn3)nc2C(F)(F)F)cnc1C(=O)Nc1ccc(C(=O)N2CCN(C(=O)C3CC[N+](C)(C)CC3)CC2)c(Cl)c1 [Example D3, 5-[1-(5-amino-2-pyridyl)-3-(trifluoromethyl)pyrazol-4-yl]-N-[3-chloro-4-[4-(1,1-dimethylpiperidin-1-ium-4-carbonyl)piperazine-1-carbonyl]phenyl]-1-methyl-imidazole-2-carboxamide; formate]
330	Cn1c(-c2cn(-c3ccc(N)cn3)nc2C(F)(F)F)cnc1C(=O)Nc1ccc(C(=O)N2CCN(C(=O)C3(O)CC[N+](C)(C)CC3)CC2)c(Cl)c1 [Example D10, 5-[1-(5-amino-2-pyridyl)-3-(trifluoromethyl)pyrazol-4-yl]-N-[3-chloro-4-[4-(4-hydroxy-1,1-dimethyl-piperidin-1-ium-4-carbonyl)piperazine-1-carbonyl]phenyl]-1-methyl-imidazole-2-carboxamide; formate]
210	Cn1c(-c2cn(-c3ccc(N)cn3)nc2C(F)(F)F)cnc1C(=O)Nc1ccc(C(=O)N2CCN(C(=O)C[N+]3(C)CCC(O)C3)CC2)c(Cl)c1 (stereo not drawn) [Example D11, 5-[1-(5-amino-2-pyridyl)-3-(trifluoromethyl)pyrazol-4-yl]-N-[3-chloro-4-[4-[2-(3-hydroxy-1-methyl-pyrrolidin-1-ium-1-yl)acetyl]piperazine-1-carbonyl]phenyl]-1-methyl-imidazole-2-carboxamide; formate]

Same assay, conditions: Acinetobacter baumannii, ATCC17961, 16 h, read-out: ATCC 17961 IC90

Structure (SMILES)	IC90 [nM]
Cn1c(-c2cn(-c3ncccn3)nc2C(F)(F)F)cnc1C(=O)Nc1ccc(C(=O)N2CCN(C(=O)C3CC[N+](C)(C)CC3)CC2)c(Cl)c1 [Example B1, N-[3-Chloro-4-[4-(1,1-dimethylpiperidin-1-ium-4-carbonyl)piperazine-1-carbonyl]phenyl]-1-methyl-5-[1-pyrimidin-2-yl-3-(trifluoromethyl)pyrazol-4-yl]imidazole-2-carboxamide; formate]	940
Cn1c(-c2cn(-c3ncccn3)nc2C(F)(F)F)cnc1C(=O)Nc1ccc(C(=O)N2CCN(C(=O)C3CC[N+](C)(CC4CNC4)CC3)CC2)c(Cl)c1 (stereo not drawn) [Example C1, N-[4-[4-[1-(Azetidin-3-ylmethyl)-1-methyl-piperidin-1-ium-4-carbonyl]piperazine-1-carbonyl]-3-chloro-phenyl]-1-methyl-5-[1-pyrimidin-2-yl-3-(trifluoromethyl)pyrazol-4-yl]imidazole-2-carboxamide; formate]	410
Cn1c(-c2cn(-c3ccc(N)cn3)nc2C(F)(F)F)cnc1C(=O)Nc1ccc(C(=O)N2CCN(C(=O)[C@@H]3C[C@@H](O)C[N+]3(C)C)CC2)c(Cl)c1 [Example D1, 5-[1-(5-Amino-2-pyridyl)-3-(trifluoromethyl)pyrazol-4-yl]-N-[3-chloro-4-[4-[(2S,4R)-4-hydroxy-1,1-dimethyl-pyrrolidin-1-ium-2-carbonyl]piperazine-1-carbonyl]phenyl]-1-methyl-imidazole-2-carboxamide; formate]	310
